Measurements as given in patent US6852756B1, “Use of pleuromutilin derivatives for transdermal treatment of bacterial diseases” (Novartis Animal Health US Inc., priority 1999, dated 2005).

Tests used:
[1] = Additional experiments: topical application as a spot on, tissue amounts, cattle; type: in vivo
[2] = tested on: Bovine Digital Dermatitis; assay: Footbath / foot spray treatment of lactating cows with clinical signs of Bovine Digital Dermatitis (footrot); type: in vivo, cattle; details: four lactating cows; footbath Day 1 and Day 3, foot spray Day 5; 10% valnemulin solution; after one week
Method: (§1) Disease: Footrot Type of administration: Footbath or directly as spray Test Protocol: Four lactating adult cows with clinical signs of Bovine Digital Dermatitis are recruited to the study. Blood and milk samples are taken before, and at intervals after application of a water/ethanol solution containing 10% valnemulin either as a footbath, or directly by spraying the feet. Footbath solutions are prepared fresh each treatment day. A calculated quantity of test product is added to an estimated volume of water, which is placed in the footbath beforehand. The cows are driven individually into the footbath and made to stand there with their feet covered by footbath solution for 2 minutes. Foot spraying involves the use of a hand operated spraying device into which 100 ml of the test product are placed. Said 100 ml are distributed between the feet of each cow and applied directly to the lower leg areas and around and underneath each foot. […]

[3] = Preliminary test: transdermal study in pigs (tissue, bile and plasma concentrations after cutaneous administration); type: in vivo; details: 2 × 25 mg/kg of body weight
Method: 1. Preliminary Test: Transdermal Study in Pigs [table] The test solution is administered cutaneously to the skin of the animal and the […], lung, skin, bile and plasma concentrations are determined. For determining the concentrations (μg/ml of plasma or g of tissue) a calibration curve of valnemulin in plasma is used. These investigations are not meant to determine the exact values but to provide only a yes or no answer.

[4] = Additional experiments: topical application as a spot on, tissue amounts, pigs; type: in vivo
[5] = Assessment of the systemic absorption of valnemulin after cutaneous administration (footbath / foot spray) in cattle; HPLC of blood and milk; type: in vivo; details: lactating cows, footbath Day 1 and Day 3, foot spray Day 5, 10% valnemulin solution
Text: as §1, with “2. Assessment of the Systemic Absorption of Valnemulin-Type of Compounds After Cutaneous Administration in Cattle” for “Disease: Footrot”, “feet. Test Formulation: Water/ethanol solution containing 10% valnemulin [table]” for “feet.”, “foot. Valnemulin content of samples is determined by a validated High Performance Liquid Chromatography (HPLC) method. Day 1; a.m. milking samples (50 ml/sample) are taken before the first treatment, thus serving as control measurements.” for “foot.”

[6] = Animal No 1, water solution containing 10% valnemulin
[7] = Animal No 2, 40% ethanol/water solution containing 10% valnemulin

## C=C[C@]1(C)C[C@@H](OC(=O)CSC(C)(C)CNC(=O)[C@H](N)C(C)C)[C@]2(C)[C@H](C)CC[C@]3(CCC(=O)[C@H]32)[C@@H](C)[C@@H]1O [valnemulin]
[1]
  amounts of active ingredient found in tissues (brain, liver, muscle, spleen, lung): fairly high amounts
[2]
  symptoms of footrot after treatment: none of the treated cows shows any symptoms of footrot
[3]; [6]
  bile concentration: 0.155 μg/ml of plasma or g of tissue
  liver concentration: 0.175 μg/ml of plasma or g of tissue
  lung concentration: 0.916 μg/ml of plasma or g of tissue
  plasma concentration 3 hours after 1st application: <limit of detection
  plasma concentration 6 hours after 1st application: <limit of detection
  skin concentration: 39.056 μg/ml of plasma or g of tissue
[3]; [7]
  bile concentration: <limit of detection
  liver concentration: 0.132 μg/ml of plasma or g of tissue
  lung concentration: 0.353 μg/ml of plasma or g of tissue
  plasma concentration 3 hours after 1st application: <limit of detection
  plasma concentration 6 hours after 1st application: 0.07 μg/ml of plasma or g of tissue
  skin concentration: 6.965 μg/ml of plasma or g of tissue
[4]
  amounts of active ingredient found in tissues (brain, liver, muscle, spleen, lung): fairly high amounts
[5]
  valnemulin concentrations in blood samples: found in most milk and blood samples
  valnemulin concentrations in milk samples: found in most milk and blood samples
